Measurements as given in patent US20140081017A1, “Histone Deacetylase Inhibitors for Enhancing Activity of Antifungal Agents” (METHYLGENE INC., priority 2012, published 2014).
Values after ≈ are worked out from the molar mass of the structure shown. Where two headings read alike, the source gives them in different places.

Legend:
Candida albicans = experiment: Minimal Inhibitory Concentration (MIC) assay, broth microdilution per CLSI; type: cell-based; conditions: Candida albicans, read-out: Minimum Inhibitory Concentrations against Yeast Isolates, Candida albicans;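 note: two read times 24 hr and 48 hr of incubation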
How it was run: (§1)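 Following CLSI procedure, compounds dissolved in DMSO on the assay day are diluted twofold and added to MOPS-buffered RPMI at pH 7.0. Saline suspensions of the yeasts, matched to 0.5 McFarland, are diluted 1:100 and inoculated, then plates incubate at 35° C for about 24-48 hr.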

Candida glabrata = experiment: as above; type: cell-based; conditions: Nakaseomyces glabratus, read-out: Minimum Inhibitory Concentrations against Yeast Isolates, Candida glabrata;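 note: two read times 24 hr and 48 hr of incubation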
How it was run: as §1

Candida parapsilosis = experiment: as above; type: cell-based; conditions: Lodderomyces parapsilosis, read-out: Minimum Inhibitory Concentrations against Yeast Isolates, Candida parapsilosis;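 note: two read times 24 hr and 48 hr of incubation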
How it was run: as §1

C. glabrata = experiment: Checkerboard FIC assay in combination with fluconazole (MIC alone and in combination, FICI); type: cell-based, Candida glabrata; conditions: for FICI of combination resulting in fluconazole MIC of: 2 ug/mL / FICI of combination resulting in fluconazole MIC of: 4 ug/mL / FICI of combination resulting in fluconazole MIC of: 8 ug/mL: FICI calculated using a fluconazole MIC of 16 μg/mL; for FICI of combination resulting in fluconazole MIC of: 2 ug/mL (value in parenthesis) / FICI of combination resulting in fluconazole MIC of: 4 ug/mL (value in parenthesis) / FICI of combination resulting in fluconazole MIC of: 8 ug/mL (value in parenthesis): FICI using a fluconazole MIC of 128 μg/mL; for MIC: Nakaseomyces glabratus; for Multiple of compound MIC to synergize fluconazole MIC to 2 ug/mL / Multiple of compound MIC to synergize fluconazole MIC to 4 ug/mL / Multiple of compound MIC to synergize fluconazole MIC to 8 ug/mL: concentration in combination as multiple of the compound's MIC alone; for Multiple of compound MIC to synergize fluconazole MIC to 2 ug/mL: fluconazole MIC 2 ug/mL; for Multiple of compound MIC to synergize fluconazole MIC to 4 ug/mL: fluconazole MIC 4 ug/mL; for Multiple of compound MIC to synergize fluconazole MIC to 8 ug/mL: fluconazole MIC 8 ug/mL; for Concentration of Methylgene compound to synergize fluconazole MIC to 2 ug/mL / Concentration of Methylgene compound to synergize fluconazole MIC to 4 ug/mL / Concentration of Methylgene compound to synergize fluconazole MIC to 8 ug/mL: in combination with fluconazole; for Concentration of Methylgene compound to synergize fluconazole MIC to 2 ug/mL: fluconazole MIC lowered to 2 ug/mL; for Concentration of Methylgene compound to synergize fluconazole MIC to 4 ug/mL: fluconazole MIC lowered to 4 ug/mL; for Concentration of Methylgene compound to synergize fluconazole MIC to 8 ug/mL: fluconazole MIC lowered to 8 ug/mL
How it was run: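 A fluconazole synergy checkerboard was run against C. glabrata in MOPS-buffered RPMI (pH 7.0) for about 48 h at 35 °C. Each agent was diluted 2-fold, with one row and one column holding each agent alone for MIC determination. FICI was calculated from these MICs, using a 0.5 McFarland inoculum diluted 1:100 per CLSI.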

[1] = 24 hr reading (first value of cell 24 hr/48 hr)
[2] = 48 hr reading (second value of cell 24 hr/48 hr)
[3] = MIC of the example compound alone against C. glabrata in the checkerboard assay, approximately 48 hr, read-out: Methylgene MIC
[4] = test compound alone, C. glabrata, approx. 48 hr at 35° C., read-out: Compound MIC

SMILES | MIC (Candida albicans; [1]) | MIC (Candida albicans; [2]) | MIC (Candida glabrata; [1]) | MIC (Candida glabrata; [2]) | MIC (Candida parapsilosis; [1]) | MIC (Candida parapsilosis; [2]) | FICI of combination resulting in fluconazole MIC of: 2 ug/mL (C. glabrata; C. glabrata) | FICI of combination resulting in fluconazole MIC of: 4 ug/mL (C. glabrata; C. glabrata) | FICI of combination resulting in fluconazole MIC of: 8 ug/mL (C. glabrata; C. glabrata) | FICI of combination resulting in fluconazole MIC of: 2 ug/mL (value in parenthesis) (C. glabrata; C. glabrata) | FICI of combination resulting in fluconazole MIC of: 4 ug/mL (value in parenthesis) (C. glabrata; C. glabrata) | FICI of combination resulting in fluconazole MIC of: 8 ug/mL (value in parenthesis) (C. glabrata; C. glabrata) | MIC (C. glabrata; [3]) | MIC (C. glabrata; [4]) | Multiple of compound MIC to synergize fluconazole MIC to 2 ug/mL (C. glabrata) | Multiple of compound MIC to synergize fluconazole MIC to 4 ug/mL (C. glabrata) | Multiple of compound MIC to synergize fluconazole MIC to 8 ug/mL (C. glabrata) | Concentration of Methylgene compound to synergize fluconazole MIC to 2 ug/mL (C. glabrata; C. glabrata) | Concentration of Methylgene compound to synergize fluconazole MIC to 4 ug/mL (C. glabrata; C. glabrata) | Concentration of Methylgene compound to synergize fluconazole MIC to 8 ug/mL (C. glabrata; C. glabrata)
COCCOCCOCC(=O)Nc1cccc(CCCCc2ccc(CC(=O)NO)cc2)c1 [Example 40, N-hydroxy-2-(4-(4-(3-(2-(2-(2-methoxyethoxy)ethoxy)acetamido)phenyl)butyl)phenyl)acetamide] | > 64 µg/mL | > 64 µg/mL | 2 µg/mL (≈ 4.36 µM) | 32 µg/mL (≈ 69.8 µM) | > 64 µg/mL | > 64 µg/mL | 0.313 | 0.250 | 0.375 | 0.266 | 0.156 | 0.188 | 16 µg/mL | 16 µg/mL | (¼x) | (⅛x) | (⅛x) | 4 µg/mL | 2 µg/mL | 2 µg/mL
O=C(Cc1ccc(CCC(O)Cc2ccccc2)cc1)NO (stereo not drawn) [Example 57, N-hydroxy-2-(4-(3-hydroxy-4-phenylbutyl)phenyl)acetamide] | > 64 µg/mL | > 64 µg/mL | 16 µg/mL (≈ 53.4 µM) | > 64 µg/mL | > 64 µg/mL | > 64 µg/mL | 0.563 | 0.625 | 0.500 | 0.516 | 0.531 | 0.313 | > 16 µg/mL | > 16 µg/mL |  |  |  | 16 µg/mL | 16 µg/mL | 8 µg/mL
O=C(Cc1ccc(CCCCc2ccc(CC(=O)NO)cc2)cc1)NO [Example 7, 2,2′-(4,4′-(butane-1,4-diyl)bis(4,1-phenylene))bis(N-hydroxyacetamide)] | > 8 µg/mL | > 8 µg/mL | 0.5 µg/mL (≈ 1.4 µM) | > 8 µg/mL | > 8 µg/mL | > 8 µg/mL | > 0.125 | > 0.188 | > 0.281 | > 0.078 | > 0.094 | > 0.094 | > 4 µg/mL | > 4 µg/mL |  |  |  | 0.5 µg/mL | 0.5 µg/mL | 0.25 µg/mL
O=C(Cc1ccc(CCCCc2ccc(C(=O)NCCCn3ccnc3)cc2)cc1)NO [Example 22, N-(3-(1H-imidazol-1-yl)propyl)-4-(4-(4-(2-(hydroxyamino)-2-oxoethyl)phenyl)butyl)benzamide] | > 8 µg/mL | > 8 µg/mL | 8 µg/mL (≈ 18.4 µM) | > 8 µg/mL | > 8 µg/mL | > 8 µg/mL | 0.188 | 0.250 | 0.313 | 0.141 | 0.156 | 0.125 | 16 µg/mL | 16 µg/mL | (⅛x) | (⅛x) | ( 1/16x) | 2 µg/mL | 2 µg/mL | 1 µg/mL
O=C(Cc1ccc(CCCC(F)(F)c2ccccc2)cc1)NO [Example 29, 2-(4-(4,4-difluoro-4-phenylbutyl)phenyl)-N-hydroxyacetamide] | 1 µg/mL (≈ 3.13 µM) | 2 µg/mL (≈ 6.26 µM) | 0.5 µg/mL (≈ 1.57 µM) | 1 µg/mL (≈ 3.13 µM) | 1 µg/mL (≈ 3.13 µM) | 2 µg/mL (≈ 6.26 µM) | 0.563 | 0.625 | 0.500 | 0.516 | 0.531 | 0.313 | 1 µg/mL | 1 µg/mL | (½x) | (½x) | (¼x) | 0.5 µg/mL | 0.5 µg/mL | 0.25 µg/mL
CN1CCC(C(=O)Nc2ccc(CCCCc3ccc(CC(=O)NO)cc3)cc2)CC1.Cl [Example 34, N-(4-(4-(4-(2-(hydroxyamino)-2-oxoethyl)phenyl)butyl)phenyl)-1-methylpiperidine-4-carboxamide hydrochloride] | > 64 µg/mL | > 64 µg/mL | > 64 µg/mL | > 64 µg/mL | > 64 µg/mL | > 64 µg/mL | 0.375 | 0.375 | 0.625 | 0.266 | 0.156 | 0.188 | 8 µg/mL | 8 µg/mL | (¼x) | (⅛x) | (⅛x) | 2 µg/mL | 1 µg/mL | 1 µg/mL
